Assays:
[1] = test system: Peripheral blood mononuclear cells (PBMCs), CD3+Vα24+ NKT cells; experiment: In vitro expansion of CD3+Vα24+ NKT cells from human PBMCs; assay type: cell-based; conditions: 13 days; 0.1 μg/ml KRN7000, 1 μg/ml α-GalCerBf, 1 μg/ml ceramideBf
Procedure: FIGS. 6A and 6B illustrate that α-GalCerBf binds human CD1d and activates human NKT cells in vitro. FIG. 6A: PBMCs were cultured for 13 days with 0.1 μg/mlKRN7000, 1 μg/ml α-GalCerBf, or 1 μg/ml ceramideBf. Dot plots show CD3^+Vα24^+NKT cells pre- and post-expansion. The data shown are representative of at least two individual experiments performed with six individual donors. FIG. 6B: Human NKT cells were purified after two rounds of expansion with 1 μg/ml α-GalCerBf and restimulated with 10 μg/ml α-GalCerBf in the presence or absence of control Ig or anti-Cd1d blocking antibodies. IFN-γ secretion was measured in supernatants 40-48 hours later. Data are representative of two independent experiments.
The capability of α-GalCerBf to stimulate freshly isolated NKT cells was determined. A first experiment was performed to determine whether Vα24^+ cells could be expanded in vitro with α-GalCerBf as previously described for KRN7000 (see, e.g., Rogers et al., J. Immunol. Meth. 285:197-214 (2004)). Peripheral blood mononuclear cells (PBMCs) were cultured with 0.1 μg/ml KRN7000, 1 μg/ml α-GalCerBf, or 1 μg/ml ceramideBf for 13 days. The presence of CD3 Vα24^+ cells was then assessed by flow cytometry. At least two individual experiments performed with six individual donors. […] IFN-γ secretion was measured in supernatants 40-48 hours later.

[2] = test system: cyclophosphamide (CY) induced diabetes; conditions: NOD mouse model; Sharif et al.; cited from earlier work
[3] = target: T1, Mouse CD1d (mCD1d) tetramer / TCR of NKT cell hybridomas (Mus musculus, UniProt P11609); experiment: Staining of NKT cell hybridomas with sphingolipid-loaded mCD1d tetramers (flow cytometry); assay type: binding; conditions: mCD1d tetramer loaded with the sphingolipid
T1 construct: purchased NIH Tetramer Core Facility
T1 sequence (P11609 19-297 limits assumed): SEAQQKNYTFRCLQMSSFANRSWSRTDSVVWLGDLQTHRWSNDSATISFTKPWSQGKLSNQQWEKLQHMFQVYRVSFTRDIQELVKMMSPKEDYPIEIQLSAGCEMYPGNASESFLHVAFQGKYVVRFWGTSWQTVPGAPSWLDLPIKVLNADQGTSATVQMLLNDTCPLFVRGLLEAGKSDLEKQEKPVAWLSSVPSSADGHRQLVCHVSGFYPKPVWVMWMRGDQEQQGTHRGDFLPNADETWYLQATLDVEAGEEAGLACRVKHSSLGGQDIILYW
T1 sequence (P01887 21-119 partner): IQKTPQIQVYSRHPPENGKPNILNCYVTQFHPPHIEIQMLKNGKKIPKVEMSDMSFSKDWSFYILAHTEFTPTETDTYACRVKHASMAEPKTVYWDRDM
Procedure: FIGS. 4A-4C illustrate that α-GalCerBf binds CD1d and activates murine NKT cells in vitro. FIG. 4A: NKT cell hybridomas (see Example 4) were stained with anti-CD3 antibodies, and empty mCD1d tetramers or CD1d tetramers were loaded with α-GalCerBf or KRN7000. Flow cytometry plots representative of three independent experiments are shown. FIG. 4B: Hybridomas were cultured with BMDCs (bone marrow-derived dendritic cells) pre-pulsed with LPS or LPS+α-GalCerBf in the presence of control Ig or anti-CD1d blocking antibodies. IL-2 secretion was measured in supernatants 16 hr later. Data are representative of three independent experiments. FIG. 4C: Liver mononuclear cells were cultured with splenocytes plus increasing amounts of α-GalCerBf in the presence or absence of anti-CD1d blocking antibodies. IFN-γ secretion was measured in supernatants on day 5. Data are representative of three independent experiments.
The reagents used in Examples 4 and 5 for the immunology studies were as follows. PBS-57 loaded mCDld tetramers, which were used for mouse experiments, and unloaded mCD1d monomers were obtained from the NIH Tetramer Core Facility. For loading, monomers were incubated with KRN7000 or α-GalCerBf diluted in DMSO at 6 fold molar excess at 37° C. for 3 hrs in the presence of pepstatin, leupeptin, EDTA and TWEEN 20. Samples were concentrated using a 30K microconcentrator. Monomers were tetramerized by incubation with streptavidin-conjugated allophycocyanin (APC) (Molecular Probes, Inc., Eugene, Oreg.) at a 1:1 ratio. Staining was performed at room temperature for 1 hr. […] Viability was determined by staining cells with LIVE/DEAD fixable Aqua stain (Invitrogen Life Technologies, Carlsbad, Calif.) per manufacturer's instructions. […]
Synthetic CD1d tetramers were loaded with each sphingolipid, KRN7000 and α-GalCerBf), and the capability of the sphingolipid/CD1d-tetramer complex (hereafter called ‘tetramer’) to stain three NKT-cell-derived hybridomas was determined (see, e.g., Brossay et al., J. Immunol. […]

MFI (Median Fluorescence Intensity) of tetramer staining ([3]; DN3A4-1.2 (1.2) hybridoma): 2151
MFI (Median Fluorescence Intensity) of tetramer staining ([3]; DN3A4-1.4 (1.4) hybridoma): 683
MFI (Median Fluorescence Intensity) of tetramer staining ([3]; N38-2C12 (2C12) hybridoma): 8932
SMILES: CCCCCCCCCCCCCCCCCCCCCCCCCC(=O)N[C@@H](CO[C@H]1O[C@H](CO)[C@H](O)[C@H](O)[C@H]1O)[C@H](O)[C@H](O)CCCCCCCCCCCCCC [KRN7000]
Expansion of a population of CD3+Vα24+ cells [1]: showed an expansion
Effect on cyclophosphamide (CY) induced diabetes [2]: prevents

From patent US10227290B2, “Glycosphingolipids for use in modulating immune responses” (The Regents of the University of California, priority 2012, dated 2019)
